Laboratory results as given in patent US20070275953A1 (priority 2003, published 2007).
Read-outs that look alike come from different tables or passages of the source.

Experiments:
Assay type in all cases: cell-based
[1] = test system: HIV-1 mutant Cys181RT in TZM-bl cells; assay: Anti-HIV assay on TZM-bl cells, Cys181RT mutant; conditions: read-out: EC50 Cys181RT TZM-bl
From the text: (§1) In order to introduce mutation(s) at the level of the pol gene coding for the RT in the pNL4-3 plasmid containing the complete viral genome (Adachi et al., 1986. J. Virol., Vol. 59 p 284-291) we used the “Quick change mutagenesis kit” (Stratagene). The following mutations were separately introduced in pNL4-3: L100I, K103N, V108I, Y181C, Y188C, and the double mutations K103N/V108I. These mutations were chosen because of the resistance that they confer to existing NNRTI. The production procedure of the mutant viral stocks is identical to the one described above.
(§2) Anti-HIV activity and cytotoxicity of the compounds were tested on the TZM-b1 cell line. The TZM-b1 cell line (Wei et al. 2002. Antimicrob. Agents Chemother. Vol. 46, p 1896-1905) was received from the NIH AIDS Research and Reference Reagent Program. These cells were cultured in complete DMEM medium supplemented with 10% fetal bovine serum (FBS), and 1% Penicillin/Streptomycin. Exponentially growing cells were trypsinized, centrifuged and split twice weekly at 5 10^4 cells/ml.
(§3) The anti-HIV assay with TZM-b1 cells is essentially the same as described above with P4 cells. The main difference between the two cell lines is that the TZM-b1 cells express at their surface both the CD4 and CCR5 proteins, acting as receptor and co-receptor for HIV entry, respectively (Wei et al. 2002. Antimicrob. Agents Chemother. Vol. 46, p 1896-1905). This feature makes the cells very sensitive to infection by the virus. The TMZ-b1 cells were infected with equal amount of cell-free virus, corresponding to 10 ng of HIV p24 antigen. This amount is ten times lower than the amount used to infect the P4 cells.

[2] = test system: HIV-1 mutant Cys188RT in P4 cells; assay: Anti-HIV assay on P4 cells, Cys188RT mutant
From the text: as §1
Anti-HIV activity and cytotoxicity of the compounds were tested on a P4 cell line. The P4 cell line (Clavel & Charneau, 1994. J. Virol., Vol. 68 p 1179-1185) was provided by Dr. François Clavel (Unité de recherche antivirale de l'hôpital Xavier Bichat Paris: Inserm). The P4 cells were cultured in complete DMEM medium supplemented with 10% fetal bovine serum (FBS), 0.5% of Penicillin/Streptomycin and G418 at 0.5 mg/ml. Exponentially growing cells were trypsinized, centrifuged and split twice weekly at 5.10^4 cells/ml.
The P4 cells are HIV-infectible Hela-CD4 cells that carry the bacterial lacZ gene under the control of the HIV-1 long terminal repeat (LTR). In this cell line, transcription of the LacZ gene is driven by the HIV-1 LTR. As such, the cytoplasmic accumulation of β-galactosidase is strictly dependent on the presence of the HIV transactivator Tat produced during the intracellular viral replication (Clavel & Charneau, 1994. J. Virol., Vol. 68, p. 1179-1185). In other words, in this system, the expression level of the β-galactosidase gene is proportional to the viral replication.
Briefly, in the anti-HIV assay 100 Ål of P4 cells were plated in 96-well plate at a concentration of 0.4 10^5 cells/ml and incubated at 37° C., 5% CO2. After 48 h, the medium was removed and 100 Ål of the different drugs dilutions were added to the cells. Four hours after the addition of the drugs all cells were infected with equal amount of cell-free virus, corresponding to 100 ng of HIV p24 antigen. After 48 h of incubation at 37° C., 5% CO2, β-galactosidase activity was measured using chlorophenol red-β-D-galactopyranoside assays.
The absorbance was measured on a Benchmark™ Microplate Reader (Biorad) (λ=570 nm) and compared with 12 cell control replicates (no virus or drug added) and 12 virus control wells (no drug added). Each assay was performed a minimum of three times. The 50% effective concentration (Ec50) was calculated from each dose response curve using the CurveExpert 1.3 software. As Nevirapine activity corresponds to its published values (10-100 nM), the data are consistent with other measures of viral replication.

[3] = test system: HIV-1 with WT (wild type) RT in TZM-bl cells; assay: Anti-HIV assay on TZM-bl cell line, WT RT
Protocol: Wurzburg Jurkat T cells (subclone JR) were transfected with 10 μg of the circularly permuted infectious molecular clone HIVNL4-3 (Adachi et al., 1986. J. Virol, 59 (2), p 284-291). Two days later, co-cultivation with SupT1 cells (a human T-cell lymphoma cell line) was initiated to facilitate rapid production of progeny virions. Production of virus was measured by using the Innotest HIV Antigen mAb p24 kit (Innogenetics). At the peak of production cultures were harvested and filtered. The virus stocks were stored at −80° C. until used.
as §2, §3

[4] = test system: HIV-1 mutant Cys188RT in MT4 cells; assay: Anti-HIV assay on MT4 cells, Cys188RT mutant
From the text: as §1
(§4) Anti-HIV activity of the compounds was tested on MT-4 cell line. The MT-4 cell line (Larder et al. 1989. Sciences, Vol. 243 p 1731) was received from the NIH AIDS Research and Reference Reagent Program. These cells were cultured in RPMI medium supplemented with 10% fetal bovine serum (FBS), and 1% Penicillin/Streptomycin. The cultures were split regularly to keep cells densities between 0.3 to 1.2 10^6 cells/ml.
(§5) The MT-4 cells rapidly die upon infection by HIV. In this system there is an inverse correlation between cells survival and the amount of viral replication.
(§6) Briefly, in the anti-HIV assay exponentially growing MT-4 cells were infected with HIV-1. 100 μl of infected MT-4 cells were seeded in 96-well plate at a concentration of 0.4 10^5 cells/ml, and 100 μl of the different drugs dilutions were added to the cells. After 4 days of incubation at 37° C., 5% CO2, cells survival was measured using MTS (3-(4-5-dimethylthiazol-2-yl)-5-(−(3-carboxymethoxyphenyl)-2-(4-sulfophenyl)-2H-tetrazolium) assays. This compound is reduced by viable cells in a colored soluble formazan salt.
(§7) The absorbance was measured on a Benchmark™ Microplate Reader (Biorad) (λ=490 nm) and compared with 12 cell control replicates (nor virus nor drug added) and 12 virus control wells (no drug added). Each assay was performed a minimum of three times. The 50% effective concentration (EC50) was calculated from each dose response curve using the CurveExpert 1.3 software.

[5] = test system: HIV-1 mutant Ile108RT in MT4 cells; assay: Anti-HIV assay on MT4 cells, Ile108RT mutant
From the text: as §1, §4, §5, §6, §7

[6] = P4, mutant Cys188RT, read-out: EC50 Cys188RT P4
[7] = Human immunodeficiency virus 1, MT4, read-out: EC50 Cys188RT MT4
[8] = Human immunodeficiency virus 1, TZM-bl
[9] = Human immunodeficiency virus 1, read-out: EC50 Cys188RT P4
[10] = Human immunodeficiency virus 1, MT4, read-out: EC50 Ile108RT MT4
[11] = MT4, mutant Cys188RT, read-out: EC50 Cys188RT MT4
[12] = MT4, mutant Ile108RT, read-out: EC50 Ile108RT MT4

SMILES	EC50 ([1]; TZM-bl, mutant Cys181RT)	EC50 [2, 6]	EC50 [3]	EC50 [4, 7]	EC50 [1, 8]	EC50 [2, 9]	EC50 [5, 10]	EC50 ([3]; Human immunodeficiency virus 1)	EC50 [4, 11]	EC50 [5, 12]
CCOC(=O)c1c(OC2CC(C)CC(C)C2)c(CC)c(C)[nH]c1=O (single isomer, unassigned) [Z37inv]	2.54 µM	0.01 µM	0.439 µM							
O=C1Nc2ccc(Cl)cc2[C@@](C#CC2CC2)(C(F)(F)F)O1 [Efavirenz, reference compound]				0.001 µM	< 0.001 µM	< 0.001 µM	< 0.001 µM	< 0.001 µM		
Cc1ccnc2c1NC(=O)c1cccnc1N2C1CC1 [Nevirapine, reference compound]				> 5 µM	8.3 µM	1.64 µM	1.27 µM	0.056 µM		
CCc1c(C)[nH]c(=O)c(CO)c1OC1CC(C)CC(C)C1 (stereo not drawn) [Z45inv]	3.2 µM	0.008 µM	0.197 µM							
CCc1c(C)[nH]c(=O)c([N+](=O)[O-])c1OC1CC(C)CC(C)C1 (stereo not drawn) [Z91inv, 3-nitro-5-ethyl-6-methyl-4-[(3,5-dimethylcyclohexyl)oxy]pyridine-2(1H)-one]				0.043 µM	0.058 µM	< 0.001 µM	0.072 µM	< 0.001 µM		
CCc1c(C)[nH]c(=O)c(CSC(C)=O)c1OC1CC(C)CC(C)C1 (stereo not drawn) [Z114]	0.411 µM	0.003 µM	0.011 µM						1.68 µM	12 µM
CCc1c(C)[nH]c(=O)c(N(C)C)c1OC1CC(C)CC(C)C1 (stereo not drawn) [Z150, 3-(dimethylamino)-5-ethyl-6-methyl-4-[(3,5-dimethylcyclohexyl)oxy]pyridine-2(1H)-one]				0.006 µM	0.086 µM	< 0.001 µM	< 0.001 µM	< 0.001 µM		
CCc1c(C)[nH]c(=O)c(CN=[N+]=[N-])c1OC1CC(C)CC(C)C1 (stereo not drawn) [Z153]	0.083 µM	< 0.001 µM	< 0.001 µM						0.033 µM	0.008 µM
CCc1c(C)[nH]c(=O)c(C)c1OC1CC(C)CC(C)C1 (stereo not drawn) [Z154]	0.288 µM	< 0.001 µM	0.003 µM							
